Laboratory results published in US6489469B1, “Method for storing or transporting erythritol solution” (Nikken Chemicals Co., Ltd., priority 1999, dated 2002).

What was measured:
[1] = tested on: Bacillus subtilis IFO 3134; assay: Viable Count of Bacillus subtilis IFO 3134 in Erythritol Solution; type: cell-based
Experimental: (§1) Erythritol solutions of respective concentrations in the range of from 30 to 60% were prepared. To these were inoculated Staphylococcus aureus IFO 13276, Bacillus subtilis IFO 3134, and Escherichia coli IFO 3972 as bacteria, Candida albicans IFO 1549 and Saccharomyces cerevisiae ATCC 9763 as yeasts, Aspergillus niger IFO 6342, Aspergillus flavus IFO 6343, and Penicillium funiculosum IFO 6345 as fungi, respectively, in a population (concentration) of 10,000 cells/mL or more. After the inoculation, the solutions were stored at 30, 37, 45, 50, or 60° C., respectively, for 56 days and the number of viable cell was determined daily. The determination of the number of viable cell was performed by a method of coating 0.1 mL of appropriately diluted sample cultivation on an agar plate and cultivating and counting the number of viable cell (the number of colony) that grew after the cultivation.

[2] = tested on: Penicillium funiculosum IFO 6345; assay: Viable Count of Penicillium funiculosum IFO 6345 in Erythritol Solution; type: cell-based
Experimental: as §1

OC[C@@H](O)[C@@H](O)CO [Erythritol Solution, erythritol]
440 cells/mL: The Number of Viable Cell ([1]; 30° C., 30% w/w, Day 7)
110 cells/mL: The Number of Viable Cell ([1]; 30° C., 30% w/w, Day 14) | The Number of Viable Cell ([1]; 45° C., 30% w/w, Day 7)
≥ 10000 cells/mL: The Number of Viable Cell ([2]; 37° C., 30% w/w, Day 0) | The Number of Viable Cell ([2]; 37° C., 30% w/w, Day 3) | The Number of Viable Cell ([2]; 37° C., 30% w/w, Day 7) | The Number of Viable Cell ([2]; 37° C., 30% w/w, Day 14) | The Number of Viable Cell ([2]; 37° C., 30% w/w, Day 28) | The Number of Viable Cell ([2]; 37° C., 30% w/w, Day 56) | The Number of Viable Cell ([2]; 37° C., 40% w/w, Day 0) | The Number of Viable Cell ([2]; 37° C., 40% w/w, Day 3) | The Number of Viable Cell ([2]; 37° C., 40% w/w, Day 7) | The Number of Viable Cell ([2]; 37° C., 40% w/w, Day 14) | The Number of Viable Cell ([2]; 37° C., 40% w/w, Day 28) | The Number of Viable Cell ([2]; 37° C., 40% w/w, Day 56) | The Number of Viable Cell ([2]; 45° C., 30% w/w, Day 0) | The Number of Viable Cell ([2]; 45° C., 40% w/w, Day 0)
3 days: time after which microbes died ([1]; temperature of 50° C. or more)
20 cells/mL: The Number of Viable Cell ([1]; 30° C., 40% w/w, Day 14)
370 cells/mL: The Number of Viable Cell ([2]; 45° C., 30% w/w, Day 3)
750 cells/mL: The Number of Viable Cell ([1]; 30° C., 30% w/w, Day 28) | The Number of Viable Cell ([2]; 45° C., 40% w/w, Day 3)
170 cells/mL: The Number of Viable Cell ([1]; 37° C., 30% w/w, Day 3)
10000 or more cells/mL: The Number of Viable Cell ([1]; 30° C., 30% w/w, Day 0) | The Number of Viable Cell ([1]; 30° C., 40% w/w, Day 0) | The Number of Viable Cell ([1]; 37° C., 30% w/w, Day 0) | The Number of Viable Cell ([1]; 37° C., 40% w/w, Day 0) | The Number of Viable Cell ([1]; 45° C., 30% w/w, Day 0) | The Number of Viable Cell ([1]; 45° C., 50% w/w, Day 0) | The Number of Viable Cell ([1]; 50° C., 30% w/w, Day 0) | The Number of Viable Cell ([1]; 50° C., 40% w/w, Day 0) | The Number of Viable Cell ([1]; 50° C., 50% w/w, Day 0)
30 cells/mL: The Number of Viable Cell ([1]; 45° C., 50% w/w, Day 3)
11500 cells/mL: The Number of Viable Cell ([1]; 37° C., 30% w/w, Day 7)
0 cells/mL: The Number of Viable Cell ([1]; 30° C., 30% w/w, Day 56) | The Number of Viable Cell ([1]; 30° C., 40% w/w, Day 7) | The Number of Viable Cell ([1]; 30° C., 40% w/w, Day 28) | The Number of Viable Cell ([1]; 30° C., 40% w/w, Day 56) | The Number of Viable Cell ([1]; 37° C., 30% w/w, Day 56) | The Number of Viable Cell ([1]; 37° C., 40% w/w, Day 3) | The Number of Viable Cell ([1]; 37° C., 40% w/w, Day 7) | The Number of Viable Cell ([1]; 37° C., 40% w/w, Day 14) | The Number of Viable Cell ([1]; 37° C., 40% w/w, Day 28) | The Number of Viable Cell ([1]; 37° C., 40% w/w, Day 56) | The Number of Viable Cell ([1]; 45° C., 30% w/w, Day 14) | The Number of Viable Cell ([1]; 45° C., 30% w/w, Day 28) | The Number of Viable Cell ([1]; 45° C., 30% w/w, Day 56) | The Number of Viable Cell ([1]; 45° C., 50% w/w, Day 7) | The Number of Viable Cell ([1]; 45° C., 50% w/w, Day 14) | The Number of Viable Cell ([1]; 45° C., 50% w/w, Day 28) | The Number of Viable Cell ([1]; 45° C., 50% w/w, Day 56) | The Number of Viable Cell ([1]; 50° C., 30% w/w, Day 3) | The Number of Viable Cell ([1]; 50° C., 30% w/w, Day 7) | The Number of Viable Cell ([1]; 50° C., 30% w/w, Day 14) | The Number of Viable Cell ([1]; 50° C., 30% w/w, Day 28) | The Number of Viable Cell ([1]; 50° C., 30% w/w, Day 56) | The Number of Viable Cell ([1]; 50° C., 40% w/w, Day 3) | The Number of Viable Cell ([1]; 50° C., 40% w/w, Day 7) | The Number of Viable Cell ([1]; 50° C., 40% w/w, Day 14) | The Number of Viable Cell ([1]; 50° C., 40% w/w, Day 28) | The Number of Viable Cell ([1]; 50° C., 40% w/w, Day 56) | The Number of Viable Cell ([1]; 50° C., 50% w/w, Day 3) | The Number of Viable Cell ([1]; 50° C., 50% w/w, Day 7) | The Number of Viable Cell ([1]; 50° C., 50% w/w, Day 14) | The Number of Viable Cell ([1]; 50° C., 50% w/w, Day 28) | The Number of Viable Cell ([1]; 50° C., 50% w/w, Day 56) | The Number of Viable Cell ([2]; 45° C., 30% w/w, Day 7) | The Number of Viable Cell ([2]; 45° C., 30% w/w, Day 14) | The Number of Viable Cell ([2]; 45° C., 30% w/w, Day 28) | The Number of Viable Cell ([2]; 45° C., 30% w/w, Day 56) | The Number of Viable Cell ([2]; 45° C., 40% w/w, Day 7) | The Number of Viable Cell ([2]; 45° C., 40% w/w, Day 14) | The Number of Viable Cell ([2]; 45° C., 40% w/w, Day 28)
2980 cells/mL: The Number of Viable Cell ([1]; 30° C., 30% w/w, Day 3)
1000 cells/mL: The Number of Viable Cell ([1]; 37° C., 30% w/w, Day 28)
prevented from growing: growth of the microbes ([1]; temperature of 50° C. or more)
300 cells/mL: The Number of Viable Cell ([1]; 30° C., 40% w/w, Day 3)
